# Measured values from patent US20160319277A1, “METHODS OF IMPROVED PROTEIN PRODUCTION USING MIRNAs AND SIRNAs” (THE JOHNS HOPKINS UNIVERSITY, priority 2015, published 2016).
# System: HEK 293 cell lines expressing luciferase, GPC3-hFc, NTSR1-GFP, SERT-GFP
# Experiment: Validation transfection of siRNAs against ten selected genes in four HEK 293 cell lines expressing different reporter proteins
# Format: cell-based, human
# Conditions: 40 nM, 1 representative siRNA per gene; for expression of reporter proteins: luciferase, GPC3-hFc, NTSR1-GFP, SERT-GFP
# Description: Ten targeted genes were selected and tested in four HEK 293 cell lines expressing different reporter proteins, glycan-3 hFc-fision protein (GPC3-hFc), neurotensin receptor type 1-GFP (NTSR1-GFP) and serotonin transporter-GFP (SERT-GFP), using 1 representative siRNA for each gene. Transfection was performed in 12-well plate format. 500 μL of serum free DMEM media containing siRNA and Lipofectamine™ RNAiMax was incubated in each well for 20 min at ambient temperature and 500 μL DMEM containing 20% FBS and cells was then added for transfection. The final siRNA concentration in each well was 40 nM. Lipofectamine™ RNAiMax volume and cell seeding number in each well have been optimized for each cell line (Table 2).
# 5 days after transfection, clarified cell culture supernatant was used for determination of GPC3-hFc concentration by ELISA and cells were detached and counted by trypan blue exclusion using a CEDEX™ cell quantification system (Roche, Mannheim, Germany). AffiniPure™ F(ab′)2 Fragment Goat Anti-Human IgG (min X Bov, Ms, Rb Sr Prot, Cat. 109-006-170, Jackson Immunology, 5 μg/mL in PBS) was used to coat a 96-well plate (50 μL per well) at 4° C. overnight. After blocking the plate with 2% BSA in PBS, 50 μl of pre-diluted cell culture supernatant was added, and the plate was incubated at room temperature for 1 h to allow binding to occur. After the plate was washed twice with PBS containing 0.05% Tween 20, Peroxidase-conjugated AffiniPure™ Goat-anti-human IgG (Cat. 109-035-098, Jackson Immunology) was added at 1:4000 dilution (50 μL/well). Following incubation at room temperature for 1 hr, the plate was washed 4 times and signals were detected with Peroxidase Substrate System (KPL).
# 3 days after transfection, cells were induced with 1 μg/mL tetracycline. 24 hours later, cells from each well were detached with non-enzymatic cell dissociation buffer (Gibco, Cat. No. 13150-016) and washed twice with cold PBS. Cell densities were adjusted to 0.5 million cells/ml with PBS and then subjected to flow cytometry analysis. Green fluorescence was measured with Guava Easycyte 5HT™ and Incyte™ software (Millipore). The green fluorescence signal and cell gating were adjusted using uninduced T-REx-293-NTSR1-GFP cells, with more than 99.5% of the cells in low fluorescence range (<100). The setting was kept the same for all cell samples.
Substance,viable cell number,expression of reporter proteins
"PPP2R1A siRNA: 1 representative siRNA for gene PPP2R1A used in validation transfection; sequence not stated (guide CUUCGACAGUACUUCCGGATT; other strand without entry, further chemistry not given here; listed as Homo sapiens)",minimal negative effects,consistently improved
"INTS1 siRNA: 1 representative siRNA for gene INTS1 used in validation transfection; sequence not stated (guide AGAUCUUUGUCAAGGUGUATT; other strand without entry, further chemistry not given here; listed as Homo sapiens)",significantly reduced viable cell number,consistently improved
